Results reported in patent US9040534B2, “[1,2,4]triazolo[4,3-a]pyrazines as P2X7 modulators” (Janssen Pharmaceutica NV, priority 2013, dated 2015).

What was measured:
[1] = target: T1, P2X7 (Homo sapiens (Human), UniProt Q99572); test: Ca2+ flux (FLIPR) in 1321N1 cells expressing recombinant human P2X7 channel; type: cell-based; details: 250 μM BzATP
Method: (§1) (A) Ca^2+ Flux: 1321N1 cells expressing the recombinant human, rat or mouse P2X7 channel was cultured in HyQ DME/(HyClone/Dulbecco's Modified Eagle Medium) high glucose supplemented with 10% Fetal Bovine Serum (FBS) and appropriate selection marker. Cells were seeded at a density of 25000 cells/well (96-well clear bottom black walled plates) in 100 μl volume/well. On the day of the experiment, cell plates were washed with assay buffer, containing (in mM): 130 NaCl, 2 KCl, 1 CaCl2, 1 MgCl2, 10 HEPES, 5 glucose; pH 7.40 and 300 mOs. After the wash, cells were loaded with the Calcium-4 dye (Molecular Device) and incubated in the dark for 60 minutes. Test compounds were prepared at 250× the test concentration in neat DMSO. Intermediate 96-well compound plates were prepared by transferring 1.2 μL of the compound into 300 μL of assay buffer. A further 3× dilution occurred when transferring 50 μL/well of the compound plate to 100 μL/well in the cell plate. Cells were incubated with test compounds and dye for 30 minutes. […] The fluorescence change was measured 180 seconds after adding the agonist.

[2] = target: rat P2X7 (Rattus norvegicus (Rat), UniProt Q64663); test: Ca2+ flux (FLIPR) in 1321N1 cells expressing recombinant rat P2X7 channel; type: cell-based; details: 250 μM BzATP
rat P2X7, sequence (Q64663 whole entry): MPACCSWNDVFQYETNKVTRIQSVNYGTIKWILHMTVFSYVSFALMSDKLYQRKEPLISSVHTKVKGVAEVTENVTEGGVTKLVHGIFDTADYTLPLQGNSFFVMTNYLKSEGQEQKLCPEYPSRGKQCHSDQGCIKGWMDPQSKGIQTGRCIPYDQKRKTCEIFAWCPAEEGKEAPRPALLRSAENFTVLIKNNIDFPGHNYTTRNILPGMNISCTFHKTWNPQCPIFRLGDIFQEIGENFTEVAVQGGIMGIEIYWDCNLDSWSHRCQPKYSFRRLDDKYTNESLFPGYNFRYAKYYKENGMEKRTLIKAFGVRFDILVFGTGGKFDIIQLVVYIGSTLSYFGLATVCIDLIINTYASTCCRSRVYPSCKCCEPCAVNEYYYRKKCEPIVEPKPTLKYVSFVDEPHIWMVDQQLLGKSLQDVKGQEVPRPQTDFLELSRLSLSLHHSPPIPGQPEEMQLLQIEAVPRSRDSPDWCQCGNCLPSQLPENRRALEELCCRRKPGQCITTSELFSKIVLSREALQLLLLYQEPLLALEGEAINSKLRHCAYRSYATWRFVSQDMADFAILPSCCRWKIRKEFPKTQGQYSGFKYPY
Method: as §1

[3] = target: T1, P2X7; test: Radioligand binding, human P2X7-1321N1 cell membranes, tritiated A-804598 tracer; details: 1 hour at 4° C.
Method: (B) Radioligand binding: human or rat P2X7-1321N1 cells were collected and frozen @ −80° C. On the day of the experiment, cell membrane preparations were made according to standard published methods. […] The compound can be prepared as described in the literature. […] The assay was terminated by filtration (GF/B filters pre-soaked with 0.3% PEI) and washed with washing buffer (Tris-HCl 50 mM). The IC50 generated in the binding assay was corrected for tracer concentration and affinity of the tracer to derive at the affinity (Ki) of the test compounds.

T1 sequence (Q99572 whole entry): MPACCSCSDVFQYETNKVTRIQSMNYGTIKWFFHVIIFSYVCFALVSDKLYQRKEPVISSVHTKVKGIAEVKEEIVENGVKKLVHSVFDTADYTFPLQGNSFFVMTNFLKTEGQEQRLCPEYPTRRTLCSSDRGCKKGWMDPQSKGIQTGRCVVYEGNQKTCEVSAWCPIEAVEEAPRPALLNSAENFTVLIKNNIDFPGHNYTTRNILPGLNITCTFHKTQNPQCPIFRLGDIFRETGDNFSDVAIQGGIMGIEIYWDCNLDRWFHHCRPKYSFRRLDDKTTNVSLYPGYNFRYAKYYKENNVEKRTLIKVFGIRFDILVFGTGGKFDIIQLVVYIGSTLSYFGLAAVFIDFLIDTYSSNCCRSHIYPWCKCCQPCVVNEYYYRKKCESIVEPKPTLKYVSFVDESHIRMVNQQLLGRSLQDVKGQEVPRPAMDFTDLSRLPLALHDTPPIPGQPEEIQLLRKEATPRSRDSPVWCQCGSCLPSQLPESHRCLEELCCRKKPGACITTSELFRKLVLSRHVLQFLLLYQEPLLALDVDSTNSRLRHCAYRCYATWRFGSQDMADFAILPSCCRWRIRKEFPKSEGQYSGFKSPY

| Compound | IC50 [1] [nM] | IC50 [2] [nM] | Ki [3] [nM] |
| --- | --- | --- | --- |
| CC(c1cccc(C(F)(F)F)c1Cl)N1CCn2c(nnc2-c2cnccn2)C1=O (racemic) [Example 4, (±)7-{1-[2-Chloro-3-(trifluoromethyl)phenyl]ethyl}-3-pyrazin-2-yl-6,7-dihydro[1,2,4]triazolo[4,3-a]pyrazin-8(5H)-one] | 2690 | > 10000 |  |
| O=C1c2nnc(-c3ncc(F)cn3)n2CC(C2CC2)N1Cc1cccc(C(F)(F)F)c1Cl (racemic) [Example 70, (±)-7-[2-Chloro-3-(trifluoromethyl)benzyl]-6-cyclopropyl-3-(5-fluoropyrimidin-2-yl)-6,7-dihydro[1,2,4]triazolo[4,3-a]pyrazin-8(5H)-one] | 7.9 | 794 | 7.9 |
| O=C1c2nnc(-c3ccc(F)cc3)n2CCN1Cc1cccc(C(F)(F)F)c1Cl [Example 1, 7-[2-Chloro-3-(trifluoromethyl)benzyl]-3-(4-fluorophenyl)-6,7-dihydro[1,2,4]triazolo[4,3-a]pyrazin-8(5H)-one] | 148 | 28400 | 63.1 |
| O=C1c2nnc(-c3cnccn3)n2CCN1Cc1c(Cl)cccc1Cl [Example 5, 7-(2,6-Dichlorobenzyl)-3-pyrazin-2-yl-6,7-dihydro[1,2,4]triazolo[4,3-a]pyrazin-8(5H)-one] | 942 | 2560 |  |
| O=C1c2nnc(-c3cnccn3)n2CCN1Cc1cccc(F)c1F [Example 6, 7-(2,3-Difluorobenzyl)-3-pyrazin-2-yl-6,7-dihydro[1,2,4]triazolo[4,3-a]pyrazin-8(5H)-one] |  | > 10000 |  |
| CS(=O)(=O)c1cc(Cl)ccc1CN1CCn2c(nnc2-c2cnccn2)C1=O [Example 7, 7-[4-Chloro-2-(methylsulfonyl)benzyl]-3-pyrazin-2-yl-6,7-dihydro[1,2,4]triazolo[4,3-a]pyrazin-8(5H)-one] | 3400 | > 10000 |  |
| C[C@H]1Cn2c(nnc2-c2cn[nH]c2)C(=O)N1Cc1cccc(C(F)(F)F)c1Cl [Example 25, (6S)-7-[2-Chloro-3-(trifluoromethyl)benzyl]-6-methyl-3-(1H-pyrazol-4-yl)-6,7-dihydro[1,2,4]triazolo[4,3-a]pyrazin-8(5H)-one] | 96.6 | 3150 | 25.1 |
| C[C@H]1Cn2c(nnc2-c2nccs2)C(=O)N1Cc1cccc(C(F)(F)F)c1Cl [Example 31, (6S)-7-[2-Chloro-3-(trifluoromethyl)benzyl]-6-methyl-3-(1,3-thiazol-2-yl)-6,7-dihydro[1,2,4]triazolo[4,3-a]pyrazin-8(5H)-one] | 1.2 | 135 | 4 |
| C[C@H]1Cn2c(nnc2-c2ncc(F)cn2)C(=O)N1Cc1cccc(C(F)(F)F)c1Cl [Example 34, (6S)-7-[2-Chloro-3-(trifluoromethyl)benzyl]-3-(5-fluoropyrimidin-2-yl)-6-methyl-6,7-dihydro[1,2,4]triazolo[4,3-a]pyrazin-8(5H)-one] | 1 |  |  |
| COc1ccnc(-c2nnc3n2C[C@H](C)N(Cc2cccc(C(F)(F)F)c2Cl)C3=O)c1 [Example 35, (6S)-7-[2-Chloro-3-(trifluoromethyl)benzyl]-3-(4-methoxypyridin-2-yl)-6-methyl-6,7-dihydro[1,2,4]triazolo[4,3-a]pyrazin-8(5H)-one] | 0.7 | 10.6 | 2 |
| C[C@H]1Cn2c(nnc2-c2csc(C(F)(F)F)n2)C(=O)N1Cc1cccc(C(F)(F)F)c1Cl [Example 38, (6S)-7-[2-Chloro-3-(trifluoromethyl)benzyl]-6-methyl-3-[2-(trifluoromethyl)-1,3-thiazol-4-yl]-6,7-dihydro[1,2,4]triazolo[4,3-a]pyrazin-8(5H)-one] | 977 | 2610 |  |
| Cc1nc(C)c(-c2nnc3n2C[C@H](C)N(Cc2cccc(C(F)(F)F)c2Cl)C3=O)s1 [Example 39, (6S)-7-[2-Chloro-3-(trifluoromethyl)benzyl]-3-(2,4-dimethyl-1,3-thiazol-5-yl)-6-methyl-6,7-dihydro[1,2,4]triazolo[4,3-a]pyrazin-8(5H)-one] | 22.4 | 8670 | 27.5 |
| C[C@H]1Cn2c(nnc2-c2ncc(Br)cn2)C(=O)N1Cc1cccc(C(F)(F)F)c1Cl [Example 42, (6S)-3-(5-Bromopyrimidin-2-yl)-7-[2-chloro-3-(trifluoromethyl)benzyl]-6-methyl-6,7-dihydro[1,2,4]triazolo[4,3-a]pyrazin-8(5H)-one] | 17.5 | > 10000 | 7.9 |
| C[C@H]1Cn2c(nnc2-c2cccnn2)C(=O)N1Cc1cccc(C(F)(F)F)c1Cl [Example 44, (6S)-7-[2-Chloro-3-(trifluoromethyl)benzyl]-6-methyl-3-pyridazin-3-yl-6,7-dihydro[1,2,4]triazolo[4,3-a]pyrazin-8(5H)-one] | 177 | 19900 |  |
| Cc1cccc(-c2nnc3n2C[C@H](C)N(Cc2cccc(C(F)(F)F)c2Cl)C3=O)n1 [Example 46, (6S)-7-[2-Chloro-3-(trifluoromethyl)benzyl]-6-methyl-3-(6-methylpyridin-2-yl)-6,7-dihydro[1,2,4]triazolo[4,3-a]pyrazin-8(5H)-one] | 3.3 | 154 | 12.6 |
| C[C@H]1Cn2c(nnc2C2CCC2)C(=O)N1Cc1cccc(C(F)(F)F)c1Cl [Example 49, (6S)-7-[2-Chloro-3-(trifluoromethyl)benzyl]-3-cyclobutyl-6-methyl-6,7-dihydro[1,2,4]triazolo[4,3-a]pyrazin-8(5H)-one] | 386 | 13200 |  |
| C[C@H]1Cn2c(nnc2C2CC2)C(=O)N1Cc1cccc(C(F)(F)F)c1Cl [Example 50, (6S)-7-[2-Chloro-3-(trifluoromethyl)benzyl]-3-cyclopropyl-6-methyl-6,7-dihydro[1,2,4]triazolo[4,3-a]pyrazin-8(5H)-one] | 371 | > 10000 |  |
| C[C@H]1Cn2c(nnc2C2CCCCC2)C(=O)N1Cc1cccc(C(F)(F)F)c1Cl [Example 51, (6S)-7-[2-Chloro-3-(trifluoromethyl)benzyl]-3-cyclohexyl-6-methyl-6,7-dihydro[1,2,4]triazolo[4,3-a]pyrazin-8(5H)-one] | 766 | > 10000 |  |
| C[C@H]1Cn2c(nnc2C2CCOCC2)C(=O)N1Cc1cccc(C(F)(F)F)c1Cl [Example 53, (6S)-7-[2-Chloro-3-(trifluoromethyl)benzyl]-6-methyl-3-(tetrahydro-2H-pyran-4-yl)-6,7-dihydro[1,2,4]triazolo[4,3-a]pyrazin-8(5H)-one] |  | > 10000 |  |
| C[C@H]1Cn2c(nnc2-c2cnccn2)C(=O)N1Cc1ccccc1 [Example 79, (6S)-7-Benzyl-6-methyl-3-pyrazin-2-yl-6,7-dihydro[1,2,4]triazolo[4,3-a]pyrazin-8(5H)-one] |  | > 10000 |  |
| C[C@H]1Cn2c(nnc2-c2cnccn2)C(=O)N1Cc1ccccc1Cl [Example 80, (6S)-7-(2-Chlorobenzyl)-6-methyl-3-pyrazin-2-yl-6,7-dihydro[1,2,4]triazolo[4,3-a]pyrazin-8(5H)-one] |  | 41400 |  |
| C[C@H]1Cn2c(nnc2-c2cnccn2)C(=O)N1Cc1ccccc1OC(F)(F)F [Example 83, (6S)-6-Methyl-3-pyrazin-2-yl-7-[2-(trifluoromethoxy)benzyl]-6,7-dihydro[1,2,4]triazolo[4,3-a]pyrazin-8(5H)-one] | 822 | 11100 |  |
| C[C@H]1Cn2c(nnc2-c2cnccn2)C(=O)N1Cc1cc2c(cc1Cl)OCO2 [Example 84, (6S)-7-[(6-Chloro-1,3-benzodioxol-5-yl)methyl]-6-methyl-3-pyrazin-2-yl-6,7-dihydro[1,2,4]triazolo[4,3-a]pyrazin-8(5H)-one] | 340 | > 10000 |  |
| C[C@H]1Cn2c(nnc2-c2cnccn2)C(=O)N1Cc1c(Cl)cccc1Cl [Example 86, (6S)-7-(2,6-Dichlorobenzyl)-6-methyl-3-pyrazin-2-yl-6,7-dihydro[1,2,4]triazolo[4,3-a]pyrazin-8(5H)-one] |  | 1370 |  |
| C[C@H]1Cn2c(nnc2-c2cnccn2)C(=O)N1Cc1ccccc1[N+](=O)[O-] [Example 89, (6S)-6-Methyl-7-(2-nitrobenzyl)-3-pyrazin-2-yl-6,7-dihydro[1,2,4]triazolo[4,3-a]pyrazin-8(5H)-one] | 26.4 | 7280 |  |
| C[C@H]1Cn2c(nnc2-c2cnccn2)C(=O)N1Cc1cc([N+](=O)[O-])ccc1Cl [Example 90, (6S)-7-(2-Chloro-5-nitrobenzyl)-6-methyl-3-pyrazin-2-yl-6,7-dihydro[1,2,4]triazolo[4,3-a]pyrazin-8(5H)-one] | 1000 | 20000 |  |
| C[C@H]1Cn2c(nnc2-c2cnccn2)C(=O)N1Cc1cc(N)ccc1Cl [Example 91, (6S)-7-(5-Amino-2-chlorobenzyl)-6-methyl-3-pyrazin-2-yl-6,7-dihydro[1,2,4]triazolo[4,3-a]pyrazin-8(5H)-one] | 1220 | 18900 |  |
